According to publication PMC3463587, “A Series of Beta-Carboline Derivatives Inhibit the Kinase Activity of PLKs” (PLoS ONE, 2012):

Columns and labels:
[1] = system: four cancer cell lines (HepG2, MG63, HeLa and PC3); experiment: Growth inhibition of four cancer cell lines; format: cell-based, Human
Text: In order to find more efficient antitumor small molecules targeting PLK1, we synthesized additional 18 beta-carboline compounds and the structures of these compounds are shown in Figure 1. The growth inhibition of four cancer cell lines (HepG2, MG63, HeLa and PC3) by these compounds was examined. […] We selected DH281, DH285 and DH287 for further studies.

[2] = system: HepG2 cells; experiment: MTT cell proliferation assay, HepG2; format: cell-based; conditions: Homo sapiens, 48 hr
Text: (§1) BI2536 was purchased from Selleck (Selleck, USA).

[3] = system: HeLa cells; experiment: MTT cell proliferation assay, HeLa; format: cell-based; conditions: Homo sapiens, 48 hr
Text: as §1

[4] = system: MG63 cells; experiment: MTT cell proliferation assay, MG63; format: cell-based; conditions: Homo sapiens, MG-63, 48 hr
Text: as §1

[5] = system: PC3 cells; experiment: MTT cell proliferation assay, PC3; format: cell-based; conditions: Homo sapiens, PC-3, 48 hr
Text: as §1

[6] = system: wild-type yeast cells; experiment: Yeast growth inhibition (MIC), wild-type; conditions: 10 µg/ml, 25°C
Method: (§2) The Cdc5 kinase is the functional homologue of PLK1 in budding yeast and the incubation of cdc5-2 mutants at 37°C impairs the kinase activity and stops cell growth. […] We also compared the sensitivity of wild-type and cdc5-2 mutant cells to the selected compounds at different concentrations. […] The temperature sensitive cdc5-2 mutants and wild-type strains were used. […] After incubation at 25°C for 24 hr, the growth of the yeast cells was determined by measuring OD600.

[7] = system: cdc5-2 mutant yeast cells; experiment: Yeast growth inhibition (MIC), cdc5-2 mutant; conditions: 10 µg/ml, 25°C
Method: as §2

Compound	IC50 [2] [µM]	IC50 [3] [µM]	IC50 [5] [µM]	antitumor activity (growth inhibition) [1]	IC50 [4] [µM]	growth of wild-type cells [6]	growth inhibition of cdc5-2 mutant cells [7]
Cc1nccc2c3ccc(OCc4ccc(F)cc4)cc3n(CCCc3ccccc3)c12 [DH279]	> 100	> 100	> 100	did not show obvious antitumor activity	> 100		
c1ccc(CCCn2c3ccccc3c3cc[n+](Cc4ccccc4)cc32)cc1 [DH272]	12.47 ± 0.12	8.16 ± 0.37	22.1 ± 0.43		12.8 ± 0.28		
CC[C@@H]1C(=O)N(C)c2cnc(Nc3ccc(C(=O)NC4CCN(C)CC4)cc3OC)nc2N1C1CCCC1 [BI2536, reference compound]						unaffected	complete growth inhibition
Fc1ccc(Cn2c3ccccc3c3cc[n+](Cc4ccccc4)c(Cc4ccccc4)c32)cc1 [DH271]	4.01 ± 0.1	3.86 ± 0.44	8.38 ± 0.24		5.97 ± 0.06		
Cc1nccc2c3ccc(OCc4ccccc4)cc3n(Cc3ccccc3)c12 [DH288]	> 100	> 100	> 100	did not show obvious antitumor activity	> 100		
Cc1c2c(cc[n+]1Cc1ccccc1)c1ccc(OCc3cccc(Cl)c3)cc1n2CCCc1ccccc1 [DH280]	2.59 ± 0.16	0.99 ± 0.14	2.34 ± 0.06	very strong growth inhibition	1.86 ± 0.33		
Fc1ccc(C[n+]2ccc3c4ccccc4n(CCCc4ccccc4)c3c2)cc1 [DH274]	7.37 ± 0.26	5.73 ± 0.18	6.07 ± 0.27		6.38 ± 0.19		
COc1ccc2c3ccnc(C)c3n(Cc3cccc(Cl)c3)c2c1 [DH145]	68.45 ± 0.02	40.5 ± 0.14	75.39 ± 0.16	did not show obvious antitumor activity	73.12 ± 0.31		
CCCCn1c2ccccc2c2cc(C(=O)NCCO)nc(C)c21 [DH286]	> 150	65.81 ± 0.23	72.96 ± 0.53	did not show obvious antitumor activity	46.09 ± 0.37		
Cc1nccc2c3ccc(OCc4cccc(Cl)c4)cc3n(CCCc3ccccc3)c12 [DH278]	> 100	63.14 ± 0.47	80.21 ± 0.31	did not show obvious antitumor activity	> 150		

More lines, main results first:

IC50 [2] [µM]	IC50 [3] [µM]	IC50 [5] [µM]	Compound	antitumor activity (growth inhibition) [1]	IC50 [4] [µM]	growth of wild-type cells [6]	growth inhibition of cdc5-2 mutant cells [7]
5.08 ± 0.38	3.77 ± 0.25	3.86 ± 0.12	Clc1cccc(C[n+]2ccc3c4ccccc4n(CCCc4ccccc4)c3c2)c1 [DH273]		4.21 ± 0.45		
18.8 ± 0.29	8.48 ± 0.23	10.8 ± 0.21	Clc1cccc(Cn2c3ccccc3c3cc[n+](Cc4ccccc4)cc32)c1 [DH277]		20.4 ± 0.16		
10.4 ± 0.37	5.83 ± 0.03	6.36 ± 0.11	Fc1ccc(C[n+]2ccc3c4ccccc4n(Cc4cccc(Cl)c4)c3c2)cc1 [DH275]		7.32 ± 0.22		
11.2 ± 0.22	6.04 ± 0.17	6.65 ± 0.4	Clc1cccc(Cn2c3ccccc3c3cc[n+](Cc4cccc(Cl)c4)cc32)c1 [DH276]		7.3 ± 0.06		
